{
  "source": "patent US12122973B2",
  "about": "“Guanidinium-based ionic liquid and its use as a lubricant additive” (TOTALENERGIES ONETECH, priority 2020, dated 2024)",
  "key": {"[1]": {"assay": "Base number (BN/TBN) according to ASTM D2896", "type": "physicochemical", "conditions": "neat ionic liquid", "method": "An oil's neutralization capacity is measured by its BN or Base Number, characterized by its basicity. It is measured according to standard ASTM D-2896 and is expressed as an equivalent in milligrams of potash per gram of oil (also called “mg of KOH/g” or “BN point”). The BN is a standard criterion making it possible to adjust the basicity of the cylinder oils to the sulphur content of the fuel oil used, in order to be able to neutralize all of the sulphur contained in the fuel, and capable of being converted to sulphuric acid by combustion and hydrolysis.\nThe base number of IL1 is 61 mg KOH/g according to ASTM D2896."}, "[2]": {"assay": "Solubility test of the ionic liquid in base oil", "type": "physicochemical", "conditions": "lubricant composition of IL1 and base oil; room temperature (15-25° C.) and 60° C.; limpid after three months", "text": "In order to be used in a lubricant composition, the guanidinium-based ionic liquid must preferably be soluble in the base oil which represents the major part of the lubricant composition. A compound is oil-soluble when it can be solubilized at a concentration of at least 0.01% by weight with regards to the weight of a base oil, at room temperature. In order to check that the guanidinium-based ionic liquid is oil-soluble, a test is disclosed in the experimental part.\nIn order to check that the guanidinium-based ionic liquid is oil-soluble, the following test has been achieved:\n100 mL of the lubricant composition comprising IL1 and the base oil is introduced into two reaction tubes. One of the tubes is maintained at room temperature (between 15 and 25° C.) and the other reaction tube is placed in an oven at 60° C.\nAfter three months, the lubricant composition of both reaction tubes was limpid."}},
  "data": [
    {"substance": "1,1,3,3-tetramethylguanidinium tert-Octylphenylpolyethoxyethanolate [IL1]", "values": [
      {"measurement": "base number", "setting": "[1]", "value": 61, "unit": "mg KOH/g"},
      {"measurement": "solubility in the oil", "setting": "[2]", "value": "soluble in the oil"}
    ]}
  ]
}
